Test results as given in patent publication US6869625B2, “Method of treating diabetes using plant argyrolobium roseum extract, and a process for the isolation of extract from the said plant” (Council of Scientific and Industrial Research, priority 2001, dated 2005).

Tested on: normal, 18 h fasting, glucose loaded & streptozotocin induced hyperglycaemic rats
Experiment: hypoglycaemic activity (blood sugar) in rats after oral dosing
Type: in vivo
Protocol: 1 kg of A. roseum (whole plant) is shade dried and powdered. The powdered plant material was extracted with ethyl alcohol (5 litres) for 20 hours. The alcohol extract was vacuum dried. The yield was 91 gms. The dried alcoholic extract was macerated successively with hexane and chloroform to give 8.2 gms. and 39.3 gms. of the extracts respectively. A flavonoid glycoside (230 mgs) was isolated from the chloroform extract by repeated column chromatography over silica gel of mesh size 60-120 micron. […] The onset of effect within ½ h and the effect lasted for more than five hours. The fall of blood sugar recorded with above dose was 26 mg/dl (n=24) as compared to fall of 17 & 23 mg/dl recorded with tolbutamide, 50 mg/kg p.o. (n=9) and glipizide, 0.5 mg/kg p.o. (n=8) respectively in 18 h fasting rats.

SMILES | fall of blood sugar (0.5 mg/kg p.o., 18 h fasting rats (n=8)) [mg/dL] | fall of blood sugar (50 mg/kg p.o., 18 h fasting rats (n=9)) [mg/dL]
Cc1cnc(C(=O)NCCc2ccc(S(=O)(=O)NC(=O)NC3CCCCC3)cc2)cn1 [glipizide] | 23 | 
CCCCNC(=O)NS(=O)(=O)c1ccc(C)cc1 [tolbutamide] |  | 17
